From patent publication US12465594B2 (Brown University, priority 2018, dated 2025)

Legend:
[1] = target: HEK293 cells expressing FLAG-CRFBP(10 kD)-HA-CRF2α (Homo sapiens, UniProt P24387+Q13324); conditions: 384-well format
[2] = tested on: NMDAR EPSCs in VTA dopamine neurons; assay: Electrophysiology: CRF potentiation of NMDAR EPSCs in VTA slices; format: cell-based, mouse; conditions: CRF 1 μM, VTA-DA neurons, acute brain slices
Text: Male and female mice (n=44; 6-10 weeks) were anesthetized with Euthasol (Butler-Schein). Brains were rapidly removed and placed in ice-cold NMDG-based artificial Cerebrospinal Fluid (aCSF) cutting solution containing (in mM): 92 NMDG, 20 HEPES, 25 glucose, 30 NaHCO3, 2.5 KCl, 1.2 NaPO4 saturated with 95% O2/5% CO2 with an osmolarity of 305-308 mOsm (Advanced Cell Diagnostics). The brain was cut in ice-cold NMDG solution to obtain horizontal VTA slices, 230 μm thick, using a Leica vibratome (Leica VT1200) and slices were incubated in warm NMDG solution (34° C.) for <5 minutes before being placed in a modified aCSF holding solution (in mM): 92 NaCl, 20 HEPES, 25 glucose, 30 NaHCO3, 2.5 KCl, 1.2 NaPO4 (305-308 mOsm). Slices were incubated at room temperature for at least 1 hour before recording.
Whole-cell patch clamp of the lateral VTA was performed under the guidance of IR-DIC optics on an Olympus BX5iWI microscope. Cells were patched with 1.8-3 MO resistance glass microelectrodes containing the following internal solution (in mM): 117 cesium methanesulfonate, 20 HEPES, 0.4 EGTA, 2.8 NaCl, 5 TEA-CI, 4 Mg-ATP, 0.4 Na-GTP, and 5 QX-314 (280-285 mOsm). Dopamine cells were identified by the following criteria: 1) large multipolar soma, 30-40 μm in diameter, 2) tonic firing of <4 Hz when cell attached, 3) large […] with negative voltage step (identified immediately following break in). […] Series resistance was monitored online. […]
For electrophysiology measures, excitatory post-synaptic currents (EPSCs) were normalized to 7 minute of averaged baseline responses, prior to drug application. […] Results are reported as M±SEM a in bar graphs comparing drug to vehicle and analyzed by a one-way ANOVA and post-hoc comparisons to vehicle were performed using a Bonferroni multiple comparisons correction measures (**p<0.01). […]
NMDAR excitatory postsynaptic currents (EPSCs) were recorded from VTA dopamine (DA) neurons in acute brain slices from male and female mice. […]

Sequence of HEK293 cells expressing FLAG-CRFBP(10 kD)-HA-CRF2α (P24387+Q13324 fused): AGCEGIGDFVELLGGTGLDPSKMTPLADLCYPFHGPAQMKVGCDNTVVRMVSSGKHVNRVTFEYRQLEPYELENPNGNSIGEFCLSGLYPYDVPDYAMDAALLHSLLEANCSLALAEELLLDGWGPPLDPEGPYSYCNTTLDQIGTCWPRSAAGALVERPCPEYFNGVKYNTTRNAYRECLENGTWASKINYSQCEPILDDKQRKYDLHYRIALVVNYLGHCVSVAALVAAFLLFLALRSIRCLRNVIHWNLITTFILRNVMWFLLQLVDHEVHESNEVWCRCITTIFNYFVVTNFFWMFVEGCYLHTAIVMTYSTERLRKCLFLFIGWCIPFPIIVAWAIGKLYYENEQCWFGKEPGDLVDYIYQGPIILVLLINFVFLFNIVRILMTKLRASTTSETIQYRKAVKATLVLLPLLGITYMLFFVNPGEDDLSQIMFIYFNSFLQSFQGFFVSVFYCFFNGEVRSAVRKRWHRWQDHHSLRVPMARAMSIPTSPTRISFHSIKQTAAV

Substance: corticotropin releasing factor [CRF, reference compound]
- EC80, CRF-induced intracellular calcium release [1]: 1000 nM
- Effect of CRF on NMDAR EPSCs [2]: potentiated NMDA receptor EPSCs
